# Target: T1, USP25 (USP25-His6, Boston Biochem E-546) (Homo sapiens, UniProt Q9UHP3)
# T1 construct: His6; purchased Boston Biochem E-546
# T1 sequence (Q9UHP3 1-1055): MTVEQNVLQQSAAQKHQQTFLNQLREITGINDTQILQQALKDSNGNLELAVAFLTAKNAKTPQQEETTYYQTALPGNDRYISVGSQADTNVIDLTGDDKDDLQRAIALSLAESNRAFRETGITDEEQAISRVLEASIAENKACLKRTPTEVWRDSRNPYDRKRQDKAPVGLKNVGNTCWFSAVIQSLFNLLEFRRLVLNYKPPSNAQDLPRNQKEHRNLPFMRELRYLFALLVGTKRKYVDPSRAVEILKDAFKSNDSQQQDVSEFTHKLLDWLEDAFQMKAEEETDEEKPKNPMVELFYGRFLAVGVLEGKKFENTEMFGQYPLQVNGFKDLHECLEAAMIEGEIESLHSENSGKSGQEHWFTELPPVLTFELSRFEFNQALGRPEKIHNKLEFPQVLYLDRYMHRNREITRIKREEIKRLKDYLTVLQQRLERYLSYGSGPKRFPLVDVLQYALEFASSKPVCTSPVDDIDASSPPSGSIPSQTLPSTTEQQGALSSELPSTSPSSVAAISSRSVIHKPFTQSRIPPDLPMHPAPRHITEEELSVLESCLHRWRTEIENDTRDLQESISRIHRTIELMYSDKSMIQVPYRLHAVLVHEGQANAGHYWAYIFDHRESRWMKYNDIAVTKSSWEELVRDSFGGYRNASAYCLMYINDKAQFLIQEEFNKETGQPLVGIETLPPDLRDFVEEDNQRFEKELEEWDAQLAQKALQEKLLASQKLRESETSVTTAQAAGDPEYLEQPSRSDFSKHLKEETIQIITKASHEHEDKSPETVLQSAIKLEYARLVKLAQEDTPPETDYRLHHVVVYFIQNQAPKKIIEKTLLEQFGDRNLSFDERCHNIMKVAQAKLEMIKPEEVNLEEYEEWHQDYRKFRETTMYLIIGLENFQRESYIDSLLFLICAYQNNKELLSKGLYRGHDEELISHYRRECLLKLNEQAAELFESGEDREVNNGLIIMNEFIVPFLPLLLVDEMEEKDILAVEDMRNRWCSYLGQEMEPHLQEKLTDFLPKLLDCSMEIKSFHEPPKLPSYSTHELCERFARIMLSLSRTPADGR
# Assay: Ubiquitin-Rhodamine 110 Assay for USP25 Activity, Example A-2
# Format: biochemical
# Settings: Ubiquitin-Rhodamine 110 assay, Example A-2; read-out: USP25 A-2 IC50 range
# Method in brief: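 Steps: compound dilutions (top 25 μM, 3-fold, 10 points) were preincubated 30 min with 75 pM USP25-His6; 25 nM Ub-Rh110 substrate was added under initial-velocity conditions; after 45 min at room temperature, 10 mM citric acid stopped the reaction before fluorescence reading.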
row,Structure (SMILES),IC50 [nM]
1,"Cc1cc(C(F)F)c2c(N)c(C(=O)N[C@H]3COc4cc(N5CC6CNCC(C5)O6)ccc4C3)sc2n1 [Example 88, N-((3R)-7-(9-oxa-3,7-diazabicyclo[3.3.1]nonan-3-yl)chroman-3-yl)-3-amino-4-(difluoromethyl)-6-methylthieno[2,3-b]pyridine-2-carboxamide]",1 to 50
2,"O=C(N[C@H]1COc2c(F)c(N3CC4CCC(C3)N4)cc(F)c2C1)c1cnc2c(c1)[C@@H]1C[C@@H]1CN2 [Example 89, (1aS, 7bR)-N-((3R)-7-(3 8-diazabicyclo[3.2.1]octan-3-yl)-5,8-difluorochroman-3-yl)-1a,2,3,7b-tetrahydro-1H-cyclopropa[c][1,8]naphthyridine-6-carboxamide]",50 to 200
3,"O=C(N[C@H]1COc2c(F)c(N3CC4CCC(C3)N4)cc(F)c2C1)c1cnc2c(c1)[C@H]1C[C@H]1CN2 [Example 90, (1aR,7bS)-N-((3R)-7-(3,8-diazabicyclo[3.2.1]octan-3-yl)-5,8-difluorochroman-3-yl)-1a,2,3,7b-tetrahydro-1H-cyclopropa[c][1,8]naphthyridine-6-carboxamide]",200 to 2000
4,"CO[C@@H]1CN(c2ccc3c(c2F)OC[C@H](NC(=O)c2sc4nc(C)ccc4c2N)C3)C[C@H]1N [Example 91, 3-amino-N-[(3R )-7-[(3R,4R)-3-amino-4-methoxypyrrolidin-1-yl]-8-fluoro-3,4-dihydro-2H-1-benzopyran-3-yl]-6-methylthieno[2,3-b]pyridine-2-carboxamide]",200 to 2000
5,"CO[C@H]1CN(c2ccc3c(c2F)OC[C@H](NC(=O)c2sc4nc(C)ccc4c2N)C3)C[C@@H]1N [Example 92, 3-amino-N-[(3R)-7-[(3S,4S)-3-amino-4-methoxypyrrolidin-1-yl]-8-fluoro-3,4-dihydro-2H-1-benzopyran-3-yl]-6-methylthieno[2,3-b]pyridine-2-carboxamide]",200 to 2000
6,"CO[C@@H]1CN(c2cc3c(cc2F)C[C@@H](NC(=O)c2sc4nc(C)ccc4c2N)CO3)C[C@H]1N [Example 93, 3-amino-N-[(3R)-7-[(3R,4R)-3-amino-4-methoxypyrrolidin-1-yl]-6-fluoro-3,4-dihydro-2H-1-benzopyran-3-yl]-6-methylthieno[2,3-b]pyridine-2-carboxamide]",200 to 2000

# From patent US11524966B1 (Valo Early Discovery, Inc., priority 2017, dated 2022)
